# Patent US10272055B2, “Therapeutic compounds and methods” (Regents of the University of Minnesota, priority 2014, dated 2019)
# “Also recorded” adds a separate entry of the source. Like-named read-outs stand apart in the source and are kept apart here.
# Key:
# AMPK [1] = test: AMPK phosphorylation Western blot in MCF7; assay type: cell-based; conditions: for AMPK phosphorylation relative to control: MCF7, 6 hours, metformin, buformin, phenformin 1 mM, HBB 20 uM
# Protocol: Western blotting analysis was performed in triplicate.
# Cells were plated in complete media in the presence of serum (10% FBS) and cultured at 37° C. with 5% CO2 and treated with biguanides for 6 hours before harvesting. Total protein was extracted and analyzed by Western-blotting with GAPDH as an internal control.
# (§1) Cells were plated in complete media in the presence of serum (10% FBS) and cultured at 37° C. with 5% CO2 and treated with 14,15-EET or EtOH control for 24 hours before harvesting. Total protein was extracted and analyzed by Western-blotting with GAPDH as an internal control.
# AMPK [2] = test: AMPK phosphorylation Western blot in MDA-MB-231; assay type: cell-based; conditions: MDA-MB-231, 1 uM 14,15-EET, 24 hours
# Protocol: as §1, with “FIG. 38 illustrates that 14,15-EET inactivates AMPK in MCF7 line but not in MDA-MB-231 line. Cells” for “Cells”
# MCF7 line = test: 14,15-EET protection against biguanide growth inhibition, MTT, MCF7; assay type: cell-based; conditions: MCF-7, exogenous (±)-14,15-EET (1 uM)
# Protocol: Cells were plated in complete media in the presence of serum (10% FBS) and cultured at 37° C. with 5% CO2 and treated with biguanides for 24 hours in the presence or absence of 1 uM 14,15-EET. Growth was then measured at 24 hour by MTT assay.
# CYP3A4 epoxygenase = CYP3A4 epoxygenase (Homo sapiens, UniProt P08684); test: CYP3A4 Supersome epoxygenase assay: EET synthesis from arachidonic acid, LC-ESI-MS/MS; conditions: for inhibition of CYP3A4-mediated EETs synthesis: CYP3A4 Supersome, arachidonic acid 60 uM, 30 minutes, 37 C
# Chain of CYP3A4 epoxygenase (P08684 whole entry): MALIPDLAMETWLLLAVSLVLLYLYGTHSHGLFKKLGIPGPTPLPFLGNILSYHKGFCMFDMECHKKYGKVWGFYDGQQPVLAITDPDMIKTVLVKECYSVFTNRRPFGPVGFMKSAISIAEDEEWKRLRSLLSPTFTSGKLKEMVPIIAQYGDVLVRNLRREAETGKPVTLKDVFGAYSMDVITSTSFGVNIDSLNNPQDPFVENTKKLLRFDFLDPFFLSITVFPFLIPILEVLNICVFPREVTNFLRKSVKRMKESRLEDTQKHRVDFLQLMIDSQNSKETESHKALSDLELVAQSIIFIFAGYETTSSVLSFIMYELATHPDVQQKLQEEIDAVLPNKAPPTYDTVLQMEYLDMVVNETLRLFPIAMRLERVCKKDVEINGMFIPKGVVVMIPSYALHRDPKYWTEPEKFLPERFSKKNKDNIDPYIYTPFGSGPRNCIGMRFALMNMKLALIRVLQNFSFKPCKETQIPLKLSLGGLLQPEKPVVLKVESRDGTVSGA
# Protocol: Measurements are reported as percentage of control reactions performed with vehicle but no compound. A ^13C-EET recovery standard was used to control for recovery of EETs from extractions. […] EET measurements in these Supersome experiments are expressed as percentage of control reactions. Absolute EET measurements are determined by subtraction of regioisomer values in a baseline reaction lacking NADPH. Measurements were performed in triplicate and values are expressed as the mean±SD.
# After the reaction, EETs were then extracted with 1 mL dichloromethane and reconstituted in methanol and analyzed by LC-ESI-MS/MS.
# STAT3 = STAT3 phosphorylation Western blot in MCF7; assay type: cell-based
# Protocol: Western blotting analysis was performed (C=control, M=metform and H=HBB).
# Total protein was extracted and analyzed by Western-blotting with GAPDH as an internal control.
# MDA-MB-231 = test: MTT growth assay, MDA-MB-231 line; assay type: cell-based; conditions: Homo sapiens, MDA-MB-231, 24 h, MTT assay at 24 hours, 10% FBS
# Protocol: FIG. 30 illustrates HBB inhibits proliferation of MCF7 and MDA-MB-231 lines. Cells were plated in complete media in the presence of serum (10% FBS) and cultured at 37° C. with 5% CO2 and treated with HBB or DMSO vehicle. Growth was measured at 24 hours by MTT assay. Results were converted to percent growth of control and represented as mean±S.E. (n=8).
# MCF-7 cell line = test: MTT growth assay, MCF-7 line; assay type: cell-based; conditions: Homo sapiens, MCF7, 24 h, read-out: IC50, MCF-7 growth
# Protocol: The growth of the MCF-7 line was measured by MTT assay at 24 hours. Cells were plated in complete media in the presence of serum (10% FBS) and cultured at 37° C. with 5% CO2 and treated with the biguanide or DMSO vehicle. Growth was measured at 24 hours by MTT assay.
# Cells were plated in complete media in the presence of serum (10% FBS) and cultured at 37° C. with 5% CO2 and treated with HBB or DMSO vehicle. Growth was measured at 24 hours by MTT assay.
# MCF7 = test: NAC protection against HBB growth inhibition, MTT, MCF7; assay type: cell-based; conditions: MCF7, 0.1 mM or 1 mM NAC, at IC50 of HBB
# Protocol: FIG. 34 illustrates that N-acetylcysteine (NAC) protects MDA-MB-231 but not MCF7 against HBB-mediated growth inhibition. Cells were plated in complete media in the presence of serum (10% FBS) and cultured at 37° C. with 5% CO2 and treated with HBB in the presence of NAC or PBS control. Growth was then measured at 24 hours by MTT assay. Results were converted to percent growth of control and represented as mean±S.E. (n=8).
# MCF-7 xenograft = MCF-7 xenograft in nude mice; assay type: in vivo; conditions: metformin 40 mg/kg/day in drinking water vs vehicle
# Protocol: FIG. 3A. MCF-7 xenograft with 3×10^6 cells in the 2nd mammary fat pad on day 0. HBB (4 mg/kg ip daily) (ν) or PBS (ρ) treatment began on day 1. * indicates P<0.05. FIG. 3B. MDAMB-231 xenograft with 1×10^6 cells in the 2nd mammary fat pad on day 0. HBB (4 mg/kg ip daily) (ν) or PBS (ρ) treatment began on day 1. N=20 mice per arm for each study; error bars are SEM.
# MCF-7 cells were implanted in the mammary fat pad of 4-5 week mice and treatment was initiated when tumor size was ≥15 mm^3 by 2 sequential measurements with randomized assignment to the treatment arms.
# FIG. 44A. Nude mice were inoculated with 3×10^6 MCF-7 cells and treated with vehicle (Δ) HBB at the MTD (4 mg/kg/day ip) (▪). (* indicates P<0.05). Error bars are SEM. […] The dose limiting toxicity was weight loss. At the MTD there was a well-tolerated 4% reduction of weight at 42 days (P<0.0001; data not shown). FIG. 44B. Nude mice were inoculated with 1×10^6MDA-MB-231 cells and treated with HBB at the MTD (4 mg/kg/day ip).
# CYP3A4 = CYP3A4 protein level in MCF7 cells; assay type: cell-based; conditions: MCF7, metformin 1 mM, 48 hours
# CYP3A4 nanodiscs = CYP3A4 nanodiscs (Homo sapiens, UniProt P08684); test: CYP3A4 nanodisc spin shift titration; assay type: binding; conditions: no CPR; 156 uM and 1.1 mM metformin
# Chain of CYP3A4 nanodiscs (P08684 whole entry): as above
# [3] = test system: AA metabolism to EET in MCF-7 cells; test: EET regioisomer abundance in MCF-7 cells; assay type: cell-based; conditions: 0.10 mM metformin, 6 h
structure (smiles),measurement,setting,value
"CCCCCC1OC1CC=CCC=CCC=CCCCC(=O)O (racemic) [14,15-EET, (±)-14,15-epoxyeicosatrienoic acid, reference compound]",AMPK phosphorylation relative to EtOH control,"AMPK [1]; MCF7, 1 uM 14,15-EET, 24 hours",decreased phosphorylation of AMPK
same,AMPK phosphorylation relative to control,AMPK [2],no statistical significant change of AMPK phosphorylation
"CCCCCCNC(=N)NC(=N)NCc1ccccc1.Cl [HBB-HCl, N1-hexyl-N5-benzyl biguanide hydrochloride]","rescue of MCF-7 growth by 14,15-EET in the presence of the biguanide",MCF7 line,partially inhibited
same,concentration that activates AMPK phosphorylation,AMPK [1],> 10 µM
same,"fold more potent than metformin, activation of AMPK phosphorylation",AMPK [1]; vs metformin,> 100 fold
same,IC50,"CYP3A4 epoxygenase; IC50, inhibition of CYP3A4 epoxygenase",~50 µM
same,concentration that inhibits STAT3 phosphorylation,STAT3,> 10 µM
same,"fold more potent than metformin, inhibition of Stat3 phosphorylation",STAT3; vs metformin,> 100 fold
same,IC50,MDA-MB-231,20 µM
same,IC50,"MCF-7 cell line; MTT assay at 24 hours, 10% FBS",20 µM
"CCCCCCNC(=N)NC(=N)NCc1ncc[nH]1 [HIB 2-yl, N1-hexyl-N5-((1H-imidazol-2-yl)methyl)-biguanide]",IC50,"MCF-7 cell line; MTT assay at 24 hours, 10% FBS",> 150 µM
"CCCCCCNC(=N)NC(=N)NCc1ccncc1 [HPB, N1-hexyl-N5-(pyridin-4-ylmethyl) biguanidine]",IC50,"MCF-7 cell line; MTT assay at 24 hours, 10% FBS",40 µM
"CC(=O)N[C@@H](CS)C(=O)O [NAC, N-acetylcysteine]",protection by NAC against HBB-mediated growth inhibition,MCF7,failed to protect
CCCCNC(=N)NC(=N)N [buformin],"rescue of MCF-7 growth by 14,15-EET in the presence of the biguanide",MCF7 line,rescues the MCF-7 line; also recorded: partial rescue
same,AMPK phosphorylation relative to control,AMPK [1],increased phosphorylation of AMPK
same,IC50,MCF-7 cell line,> 10000 µM
"CN(C)C(=N)N=C(N)N [metformin, reference compound]","rescue of MCF-7 growth by 14,15-EET in the presence of the biguanide",MCF7 line,rescues the MCF-7 line; also recorded: partial rescue
same,inhibition of CYP3A4-mediated EETs synthesis,CYP3A4 epoxygenase,inhibit CYP3A4 epoxygenase; also recorded: significantly reduced EETs production
same,"tumor growth, MCF-7 xenograft",MCF-7 xenograft,inhibits the MCF-7 xenograft
same,"tumor growth, MCF-7 xenograft",MCF-7 xenograft; listed as Metformin,suppressed tumor growth
same,CYP3A4 protein level,CYP3A4,does not change CYP3A4 protein level
same,IC50,"MCF-7 cell line; MTT assay at 24 hours, 10% FBS",> 10000 µM
same,binding to CYP3A4 nanodiscs,CYP3A4 nanodiscs,binds to functional CYP3A4 epoxygenase nanodiscs
same,abundance of EET regioisomers,[3],reduced abundance
"[H]/N=C(/N)N/C(=N/[H])NCCc1ccccc1 [phenformin, reference compound]","rescue of MCF-7 growth by 14,15-EET in the presence of the biguanide",MCF7 line,rescues the MCF-7 line; also recorded: partial rescue
same,AMPK phosphorylation relative to control,AMPK [1],increased phosphorylation of AMPK
same,inhibition of CYP3A4-mediated EETs synthesis,CYP3A4 epoxygenase,inhibit CYP3A4 epoxygenase
same,IC50,"MCF-7 cell line; MTT assay at 24 hours, 10% FBS",8000 µM
